Patent US11497212B2, “Substituted thiophenyl uracils, salts thereof and the use thereof as herbicidal agents” (Syngenta Crop Protection AG, priority 2017, dated 2022)

Key:
Format in all cases: in vivo
Viola tricolor [1] = assay: Herbicidal action post-emergence (greenhouse pot trial)
How it was run: (§1)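 One-leaf-stage seedlings, 2–3 weeks old, are treated on their green parts with an aqueous emulsion or suspension of the test compound (WP or EC, 0.5% additive) using 600 L/ha of water at up to 80 g/ha. About 3 weeks on, percent kill is estimated visually versus untreated plants.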

Amaranthus retroflexus [2] = assay: as above; details: scored visually after about 3 weeks vs untreated controls
How it was run: as §1

Digitaria sanguinalis [3] = assay: as above
How it was run: as §1

Setaria viridis [4] = assay: as above; details: scored visually after about 3 weeks vs untreated controls
How it was run: as §1

Stellaria media [5] = assay: as above; details: scored visually after about 3 weeks vs untreated controls
How it was run: as §1

Abutilon theophrasti [6] = assay: as above; details: scored visually after about 3 weeks vs untreated controls
How it was run: as §1

Hordeum murinum = assay: as above; details: scored visually after about 3 weeks vs untreated controls
How it was run: as §1

Echinochloa crus-galli [7] = assay: as above; details: scored visually after about 3 weeks vs untreated controls
How it was run: as §1

Pharbitis purpurea [8] = assay: as above
How it was run: as §1

Polygonum convolvulus = assay: as above; details: scored visually after about 3 weeks vs untreated controls
How it was run: as §1

Veronica persica [9] = assay: as above
How it was run: as §1

Matricaria inodora [10] = assay: as above; details: scored visually after about 3 weeks vs untreated controls
How it was run: as §1

Glycine max [11] = assay: Crop compatibility post-emergence (greenhouse pot trial); details: application rate 5 g/ha
How it was run: (§2)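 Visual % rating about 3 weeks post-treatment against untreated plants (100% dead, 0% unaffected). Post-emergence spray of aqueous WP/EC preparations with 0.5% additive at 600 L/ha water, applied at one-leaf stage to greenhouse pot-grown crops in sandy loam.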

Alopecurus myosuroides [12] = assay: Herbicidal action post-emergence (greenhouse pot trial); details: scored visually after about 3 weeks vs untreated controls
How it was run: as §1

Triticum aestivum = assay: Crop compatibility post-emergence (greenhouse pot trial); details: application rate 20 g/ha
How it was run: as §2

Lolium rigidum [13] = assay: Herbicidal action post-emergence (greenhouse pot trial); details: application rate 80 g/ha, scored visually after about 3 weeks vs untreated controls
How it was run: as §1

Oryza sativa = assay: Crop compatibility post-emergence (greenhouse pot trial); details: application rate 20 g/ha
How it was run: as §2

Viola tricolor [14] = assay: Herbicidal action pre-emergence (greenhouse pot trial); details: application rate 320 g/ha, scored after about 3 weeks
Description: (§3) Seeds of mono- and dicotyledonous weeds and crop plants were laid out in plastic or organic plant pots and covered with soil. The compounds of the invention formulated in the form of wettable powders (WP) or emulsion concentrates (EC) were then applied to the surface of the covering soil as an aqueous suspension or emulsion with addition of 0.5% additive at a water application rate equivalent to 600 L/ha. After the treatment, the pots were placed in a greenhouse and kept under good growth conditions for the test plants. After about 3 weeks, the efficacy of the preparations was scored visually as a percentage by comparison with untreated controls. For example, 100% efficacy=plants have died, 0% efficacy=like control plants. Tables B1 to B16 below show the efficacies of selected compounds of the general formula (I) according to tables I.1 to I.60 on various harmful plants and an application rate corresponding to 320 g/ha or lower that were obtained by the aforementioned trial method.

Amaranthus retroflexus [15] = assay: as above; details: application rate 320 g/ha, scored after about 3 weeks
Description: as §3

Digitaria sanguinalis [16] = assay: as above; details: application rate 80 g/ha
Description: as §3

Setaria viridis [17] = assay: as above; details: application rate 320 g/ha, scored after about 3 weeks
Description: as §3

Alopecurus myosuroides [18] = assay: as above; details: application rate 320 g/ha, scored after about 3 weeks
Description: as §3

Stellaria media [19] = assay: as above; details: application rate 320 g/ha, scored after about 3 weeks
Description: as §3

Avena fatua = assay: as above; details: application rate 320 g/ha
Description: as §3

Abutilon theophrasti [20] = assay: as above; details: application rate 320 g/ha, scored after about 3 weeks
Description: as §3

Lolium rigidum [21] = assay: as above; details: application rate 320 g/ha
Description: as §3

Echinochloa crus-galli [22] = assay: as above; details: application rate 320 g/ha, scored after about 3 weeks
Description: as §3

Pharbitis purpurea [23] = assay: as above; details: application rate 320 g/ha
Description: as §3

Veronica persica [24] = assay: as above; details: application rate 320 g/ha
Description: as §3

Matricaria inodora [25] = assay: as above; details: application rate 320 g/ha, scored after about 3 weeks
Description: as §3

Zea mays = assay: Crop compatibility pre-emergence (greenhouse pot trial); details: application rate 320 g/ha, effect vs untreated controls
Description: as §3, with “plants.” for “plants. Tables B1 to B16 below show the efficacies of selected compounds of the general formula (I) according to tables I.1 to I.60 on various harmful plants and an application rate corresponding to 320 g/ha or lower that were obtained by the aforementioned trial method.”
(§4) Crop compatibilities were also scored correspondingly.
(§5) The effects observed are reported here on selected crop plants by comparison with the untreated controls (values in %).

Glycine max [26] = assay: as above; details: application rate 20 g/ha, effect vs untreated controls
Description: as §3, with “plants.” for “plants. Tables B1 to B16 below show the efficacies of selected compounds of the general formula (I) according to tables I.1 to I.60 on various harmful plants and an application rate corresponding to 320 g/ha or lower that were obtained by the aforementioned trial method.”
as §4, §5

CC(C)CC(Sc1cc(-n2c(=O)cc(C(F)(F)F)n(C)c2=O)c(F)cc1Cl)C(=O)NCC1CCCO1 (stereo not shown) [I.4-221]
Viola tricolor (Efficacy in %) (Viola tricolor [1]; application rate 20 g/ha): 100% | Amaranthus retroflexus (Efficacy in %) (Amaranthus retroflexus [2]; application rate 20 g/ha): 100% | Digitaria sanguinalis (Efficacy in %) (Digitaria sanguinalis [3]; application rate 20 g/ha): 100% | Setaria viridis (Efficacy in %) (Setaria viridis [4]; application rate 20 g/ha): 100% | Stellaria media (Efficacy in %) (Stellaria media [5]; application rate 20 g/ha): 80% | Abutilon theophrasti (Efficacy in %) (Abutilon theophrasti [6]; application rate 20 g/ha): 100% | Hordeum murinum (Efficacy in %) (Hordeum murinum; application rate 20 g/ha): 80% | Echinochloa crus-galli (Efficacy in %) (Echinochloa crus-galli [7]; application rate 20 g/ha): 80% | Pharbitis purpurea (Efficacy in %) (Pharbitis purpurea [8]; application rate 20 g/ha): 100% | Polygonum convolvulus (Efficacy in %) (Polygonum convolvulus; application rate 20 g/ha): 100% | Veronica persica (Efficacy in %) (Veronica persica [9]; application rate 20 g/ha): 100% | Matricaria inodora (Efficacy in %) (Matricaria inodora [10]; application rate 20 g/ha): 100% | Glycine max (Efficacy in %) (Glycine max [11]): 20%

CC(C)C(Sc1cc(-n2c(=O)cc(C(F)(F)F)n(C)c2=O)c(F)cc1Cl)C(=O)OCC1CCCO1 (stereo not shown) [I.6-71]
Viola tricolor (Efficacy in %) (Viola tricolor [1]; application rate 20 g/ha): 100% | Amaranthus retroflexus (Efficacy in %) (Amaranthus retroflexus [2]; application rate 20 g/ha): 100% | Digitaria sanguinalis (Efficacy in %) (Digitaria sanguinalis [3]; application rate 20 g/ha): 100% | Setaria viridis (Efficacy in %) (Setaria viridis [4]; application rate 20 g/ha): 100% | Alopecurus myosuroides (Efficacy in %) (Alopecurus myosuroides [12]; application rate 20 g/ha): 80% | Stellaria media (Efficacy in %) (Stellaria media [5]; application rate 20 g/ha): 100% | Abutilon theophrasti (Efficacy in %) (Abutilon theophrasti [6]; application rate 20 g/ha): 100% | Hordeum murinum (Efficacy in %) (Hordeum murinum; application rate 20 g/ha): 80% | Echinochloa crus-galli (Efficacy in %) (Echinochloa crus-galli [7]; application rate 20 g/ha): 90% | Pharbitis purpurea (Efficacy in %) (Pharbitis purpurea [8]; application rate 20 g/ha): 100% | Polygonum convolvulus (Efficacy in %) (Polygonum convolvulus; application rate 20 g/ha): 100% | Veronica persica (Efficacy in %) (Veronica persica [9]; application rate 20 g/ha): 100% | Matricaria inodora (Efficacy in %) (Matricaria inodora [10]; application rate 20 g/ha): 100% | Triticum aestivum (Efficacy in %) (Triticum aestivum): 20%

Cn1c(C(F)(F)F)cc(=O)n(-c2cc(SCC(C)(C)C(=O)OCC3CCCO3)c(Cl)cc2F)c1=O (stereo not shown) [I.48-71]
Viola tricolor (Efficacy in %) (Viola tricolor [1]; application rate 80 g/ha): 100% | Amaranthus retroflexus (Efficacy in %) (Amaranthus retroflexus [2]; application rate 80 g/ha): 100% | Digitaria sanguinalis (Efficacy in %) (Digitaria sanguinalis [3]; application rate 80 g/ha): 100% | Setaria viridis (Efficacy in %) (Setaria viridis [4]; application rate 80 g/ha): 100% | Alopecurus myosuroides (Efficacy in %) (Alopecurus myosuroides [12]; application rate 80 g/ha): 90% | Stellaria media (Efficacy in %) (Stellaria media [5]; application rate 80 g/ha): 100% | Abutilon theophrasti (Efficacy in %) (Abutilon theophrasti [6]; application rate 80 g/ha): 100% | Hordeum murinum (Efficacy in %) (Hordeum murinum; application rate 80 g/ha): 80% | Lolium rigidum (Efficacy in %) (Lolium rigidum [13]): 80% | Echinochloa crus-galli (Efficacy in %) (Echinochloa crus-galli [7]; application rate 80 g/ha): 100% | Pharbitis purpurea (Efficacy in %) (Pharbitis purpurea [8]; application rate 80 g/ha): 100% | Polygonum convolvulus (Efficacy in %) (Polygonum convolvulus; application rate 80 g/ha): 100% | Veronica persica (Efficacy in %) (Veronica persica [9]; application rate 80 g/ha): 100% | Matricaria inodora (Efficacy in %) (Matricaria inodora [10]; application rate 80 g/ha): 100% | Oryza sativa (Efficacy in %) (Oryza sativa): 20% | Triticum aestivum (Efficacy in %) (Triticum aestivum): 20% | Viola tricolor (Efficacy in %) (Viola tricolor [14]): 100% | Amaranthus retroflexus (Efficacy in %) (Amaranthus retroflexus [15]): 100% | Digitaria sanguinalis (Efficacy in %) (Digitaria sanguinalis [16]): 100% | Setaria viridis (Efficacy in %) (Setaria viridis [17]): 100% | Alopecurus myosuroides (Efficacy in %) (Alopecurus myosuroides [18]): 100% | Stellaria media (Efficacy in %) (Stellaria media [19]): 100% | Avena fatua (Efficacy in %) (Avena fatua): 80% | Abutilon theophrasti (Efficacy in %) (Abutilon theophrasti [20]): 100% | Lolium rigidum (Efficacy in %) (Lolium rigidum [21]): 90% | Echinochloa crus-galli (Efficacy in %) (Echinochloa crus-galli [22]): 100% | Pharbitis purpurea (Efficacy in %) (Pharbitis purpurea [23]): 100% | Veronica persica (Efficacy in %) (Veronica persica [24]): 100% | Matricaria inodora (Efficacy in %) (Matricaria inodora [25]): 100% | Zea mays (Efficacy in %) (Zea mays): 20% | Glycine max (Efficacy in %) (Glycine max [26]): 0%
